Measurements published in BindingDB's records for doi:10.1016/s0960-894x(03)00254-3 (Merck Research Laboratories, 2003).

Assay: Ability to bind to the […] integrin expressed as inhibitory concentration against ADP-stimulated aggregation of human gel-filtered platelets

| SMILES | IC50 [nM] |
| --- | --- |
| O=C(O)C[C@H](NC(=O)Cn1c(C2CC2)c(Cl)nc(NCc2ccc3c(n2)NCCC3)c1=O)c1ccc2c(c1)OCC2 [(S)-3-(2-{5-Chloro-6-cyclopropyl-2-oxo-3-[(5,6,7,8-tetrahydro-[1,8]naphthyridin-2-ylmethyl)-amino]-2H-pyrazin-1-yl}-acetylamino)-3-(2,3-dihydro-benzofuran-6-yl)-propionic acid] | > 3000 |
| O=C(O)C[C@H](NC(=O)Cn1c(C2CC2)cnc(NCc2ccc3c(n2)NCCC3)c1=O)c1cccnc1 [(S)-3-(2-{6-Cyclopropyl-2-oxo-3-[(5,6,7,8-tetrahydro-[1,8]naphthyridin-2-ylmethyl)-amino]-2H-pyrazin-1-yl}-acetylamino)-3-pyridin-3-yl-propionic acid] | > 3000 |
| O=C(O)C[C@H](NC(=O)Cc1cccc(CCc2ccc3c(n2)NCCC3)c1)c1cccnc1 [3-(S)-Pyridin-3-yl-3-(2-{3-[2-(5,6,7,8-tetrahydro-[1,8]naphthyridin-2-yl)-ethyl]-phenyl}-acetylamino)-propionic acid] | > 3000 |
| O=C(O)C[C@H](NC(=O)Cn1c(C2CC2)c(Cl)nc(NCc2ccc3c(n2)NCCC3)c1=O)c1cnc2ccccc2c1 [(S)-3-(2-{5-Chloro-6-cyclopropyl-2-oxo-3-[(5,6,7,8-tetrahydro-[1,8]naphthyridin-2-ylmethyl)-amino]-2H-pyrazin-1-yl}-acetylamino)-3-quinolin-3-yl-propionic acid] | > 3000 |
| O=C(O)C[C@H](NC(=O)CN1CC[C@H](CCc2ccc3c(n2)NCCC3)C1=O)c1cccnc1 [3-(2-{(S)-2-Oxo-3-[2-(5,6,7,8-tetrahydro-[1,8]naphthyridin-2-yl)-ethyl]-pyrrolidin-1-yl}-acetylamino)-3-(S)-pyridin-3-yl-propionic acid] | > 3000 |
| O=C(O)C[C@H](NC(=O)Cn1c(C2CC2)cnc(NCc2ccc3c(n2)NCCC3)c1=O)c1ccc2c(c1)OCO2 [(S)-3-Benzo[1,3]dioxol-5-yl-3-(2-{6-cyclopropyl-2-oxo-3-[(5,6,7,8-tetrahydro-[1,8]naphthyridin-2-ylmethyl)-amino]-2H-pyrazin-1-yl}-acetylamino)-propionic acid] | > 3000 |
| O=C(O)C[C@H](NC(=O)CNC(=O)CCCc1ccc2c(n1)NCCC2)c1cccnc1 [(S)-3-Pyridin-3-yl-3-[2-(4-5,6,7,8-tetrahydro-[1,8]naphthyridin-2-yl-butyrylamino)-acetylamino]-propionic acid] | > 3000 |

Other lines, results leading:

| IC50 [nM] | SMILES |
| --- | --- |
| > 3000 | CCc1c(Cl)nc(NCc2ccc3c(n2)NCCC3)c(=O)n1CC(=O)N[C@@H](CC(=O)O)c1cccc(F)c1 [(S)-3-(2-{5-Chloro-6-ethyl-2-oxo-3-[(5,6,7,8-tetrahydro-[1,8]naphthyridin-2-ylmethyl)-amino]-2H-pyrazin-1-yl}-acetylamino)-3-(3-fluoro-phenyl)-propionic acid] |
| > 3000 | O=C(O)C[C@H](NC(=O)Cn1c(C2CC2)c(Cl)nc(NCc2ccc3c(n2)NCCC3)c1=O)c1cccc(F)c1 [(S)-3-(2-{5-Chloro-6-cyclopropyl-2-oxo-3-[(5,6,7,8-tetrahydro-[1,8]naphthyridin-2-ylmethyl)-amino]-2H-pyrazin-1-yl}-acetylamino)-3-(3-fluoro-phenyl)-propionic acid] |
| > 3000 | Cc1cnc(NCc2ccc3c(n2)NCCC3)c(=O)n1CC(=O)N[C@@H](CC(=O)O)c1cccc(F)c1 [(S)-3-(3-Fluoro-phenyl)-3-(2-{6-methyl-2-oxo-3-[(5,6,7,8-tetrahydro-[1,8]naphthyridin-2-ylmethyl)-amino]-2H-pyrazin-1-yl}-acetylamino)-propionic acid] |
| > 3000 | CCc1cnc(NCc2ccc3c(n2)NCCC3)c(=O)n1CC(=O)N[C@@H](CC(=O)O)c1cccc(F)c1 [(S)-3-(2-{6-Ethyl-2-oxo-3-[(5,6,7,8-tetrahydro-[1,8]naphthyridin-2-ylmethyl)-amino]-2H-pyrazin-1-yl}-acetylamino)-3-(3-fluoro-phenyl)-propionic acid] |
| > 3000 | O=C(O)C[C@H](NC(=O)Cn1c(C2CC2)cnc(NCc2ccc3c(n2)NCCC3)c1=O)c1cccc(F)c1 [(S)-3-(2-{6-Cyclopropyl-2-oxo-3-[(5,6,7,8-tetrahydro-[1,8]naphthyridin-2-ylmethyl)-amino]-2H-pyrazin-1-yl}-acetylamino)-3-(3-fluoro-phenyl)-propionic acid] |
| > 3000 | O=C(O)C[C@H](NC(=O)Cn1c(C2CC2)c(Cl)nc(NCc2ccc3c(n2)NCCC3)c1=O)c1cccnc1 [(S)-3-(2-{5-Chloro-6-cyclopropyl-2-oxo-3-[(5,6,7,8-tetrahydro-[1,8]naphthyridin-2-ylmethyl)-amino]-2H-pyrazin-1-yl}-acetylamino)-3-pyridin-3-yl-propionic acid] |
| > 3000 | Cc1c(Cl)nc(NCc2ccc3c(n2)NCCC3)c(=O)n1CC(=O)N[C@@H](CC(=O)O)c1cccc(F)c1 [(S)-3-(2-{5-Chloro-6-methyl-2-oxo-3-[(5,6,7,8-tetrahydro-[1,8]naphthyridin-2-ylmethyl)-amino]-2H-pyrazin-1-yl}-acetylamino)-3-(3-fluoro-phenyl)-propionic acid] |
| > 3000 | O=C(O)C[C@H](NC(=O)Cn1c(-c2ccccc2)c(Cl)nc(NCc2ccc3c(n2)NCCC3)c1=O)c1cccc(F)c1 [(S)-3-(2-{5-Chloro-2-oxo-6-phenyl-3-[(5,6,7,8-tetrahydro-[1,8]naphthyridin-2-ylmethyl)-amino]-2H-pyrazin-1-yl}-acetylamino)-3-(3-fluoro-phenyl)-propionic acid] |

Assay: Ability to bind to the alpha IIb beta-3 integrin expressed as inhibitory concentration against ADP-stimulated aggregation of human gel-filtered platelets

| SMILES | IC50 [nM] |
| --- | --- |
| C#C[C@H](CC(=O)O)NC(=O)Cn1c(C2CC2)ccc(NCc2ccc3c(n2)NCCC3)c1=O [(S)-3-(2-{6-Cyclopropyl-2-oxo-3-[(5,6,7,8-tetrahydro-[1,8]naphthyridin-2-ylmethyl)-amino]-2H-pyridin-1-yl}-acetylamino)-pent-4-ynoic acid] | > 3000 |
| Cc1ccc(NCc2ccc3c(n2)NCCC3)c(=O)n1CC(=O)N[C@@H](CC(=O)O)c1cccnc1 [3-(2-{6-Methyl-2-oxo-3-[(5,6,7,8-tetrahydro-[1,8]naphthyridin-2-ylmethyl)-amino]-2H-pyridin-1-yl}-acetylamino)-3-(S)-pyridin-3-yl-propionic acid] | > 3000 |
| CCCc1ccc(NCc2ccc3c(n2)NCCC3)c(=O)n1CC(=O)N[C@@H](CC(=O)O)c1cccnc1 [3-(2-{2-Oxo-6-propyl-3-[(5,6,7,8-tetrahydro-[1,8]naphthyridin-2-ylmethyl)-amino]-2H-pyridin-1-yl}-acetylamino)-3-(S)-pyridin-3-yl-propionic acid] | > 3000 |
| O=C(O)C[C@H](NC(=O)Cn1c(C2CC2)ccc(NCc2ccc3c(n2)NCCC3)c1=O)c1ccc2c(c1)OCC2 [(S)-3-(2-{6-Cyclopropyl-2-oxo-3-[(5,6,7,8-tetrahydro-[1,8]naphthyridin-2-ylmethyl)-amino]-2H-pyridin-1-yl}-acetylamino)-3-(2,3-dihydro-benzofuran-6-yl)-propionic acid] | > 3000 |
| O=C(O)C[C@H](NC(=O)Cn1c(C2CC2)ccc(NCc2ccc3c(n2)NCCC3)c1=O)c1cccnc1 [3-(2-{6-Cyclopropyl-2-oxo-3-[(5,6,7,8-tetrahydro-[1,8]naphthyridin-2-ylmethyl)-amino]-2H-pyridin-1-yl}-acetylamino)-3-(S)-pyridin-3-yl-propionic acid] | > 3000 |
| O=C(O)C[C@H](NC(=O)Cn1cccc(NCc2ccc3c(n2)NCCC3)c1=O)c1cccnc1 [3-(2-{2-Oxo-3-[(5,6,7,8-tetrahydro-[1,8]naphthyridin-2-ylmethyl)-amino]-2H-pyridin-1-yl}-acetylamino)-3-(S)-pyridin-3-yl-propionic acid] | > 3000 |
| O=C(O)C[C@H](NC(=O)CN1CCCC(CCc2ccc3c(n2)NCCC3)C1=O)c1cccnc1 (stereo partly drawn) [3-(2-{2-Oxo-3-[2-(5,6,7,8-tetrahydro-[1,8]naphthyridin-2-yl)-ethyl]-piperidin-1-yl}-acetylamino)-3-(S)-pyridin-3-yl-propionic acid] | > 3000 |

The remaining lines, values ahead:

| IC50 [nM] | SMILES |
| --- | --- |
| > 3000 | Cc1cnc(NCc2ccc3c(n2)NCCC3)c(=O)n1CC(=O)N[C@@H](CC(=O)O)c1cccnc1 [3-(2-{6-Methyl-2-oxo-3-[(5,6,7,8-tetrahydro-[1,8]naphthyridin-2-ylmethyl)-amino]-2H-pyrazin-1-yl}-acetylamino)-3-(S)-pyridin-3-yl-propionic acid] |
| > 3000 | O=C(O)C[C@H](NC(=O)Cn1c(C2CC2)ccc(NCc2ccc3c(n2)NCCC3)c1=O)c1cccc(F)c1 [(S)-3-(2-{6-Cyclopropyl-2-oxo-3-[(5,6,7,8-tetrahydro-[1,8]naphthyridin-2-ylmethyl)-amino]-2H-pyridin-1-yl}-acetylamino)-3-(3-fluoro-phenyl)-propionic acid] |
